According to US4252947A, “Novel quinazolinone” (Roussel Uclaf, priority 1976, dated 1981):
Counter-ions that a name gives are not always drawn.

Legend:
[1] = tested on: Eimeria tenella; assay: Coccidiostatic activity in chicks infested with Eimeria tenella; assay type: in vivo; conditions: for weight gain / weight gain (or less) as compared to the animals which received product A-B: chicks infested with Eimeria tenella; for weight gain: 14 to 22 days old; for weight gain / weight gain (or less) as compared to the animals which received product A-B / consumption index: feed with 1 ppm of Product A or 3 ppm of Product A-B; for weight gain (or less) as compared to the animals which received product A-B: relative to product A-B; for consumption index: feed consumed compared to weight gain, higher = more sick
Excerpt: The coccidiostatic activity of the product of Step E of Example 1 (product A) was studied in comparison with that of a racemic mixture of 7-bromo-6-chloro-3-[3-(3-hydroxy-2-piperidyl)-acetonyl]-4(3H)-quinazolinone (product A-B), 14 day old chicks were weighed and were divided into 3 groups of 13 animals. One group received a feed containing 1 ppm of product A, a second group received a feed containing 3 ppm of product A-B and the 3rd group received just the feed without any additive. The next day, the chicks were infested with Eimeria tenella coccidies and when the chicks were 22 days old, they were weighed as well as the remaining feed. The caecums were removed and the number of caecal lesions were noted. Also noted was (1) the weight of gain (or less) of the chicks as compared to the animals which received product A-B, (2) consumption index which is the amount of feed consumed compared to the weight gain which indice was all the more elevated than the animals which were more sick and (3) the intensity of the lesions on a seal of 1 to 6 were noted.

[2] = Oral acute toxicity (LD50, method of Finney); assay type: in vivo; conditions: Swiss female mice; for LD50: mouse, in vivo, dose which caused death in 50% of the animals
Description: The oral acute toxicity was determined for products A and A-B on groups of Swiss female mice by the method of Finney and the results were expressed as LD50 (the dose which caused death in 50% of the animals). The DL50 for product A was 3.7 mg/kg and for product A-B was 6.8 mg/kg. The acute toxicity of product A is only about 1.8 times greater than product A-B.

Row | Structure (SMILES) | weight gain [1] [g] | weight gain (or less) as compared to the animals which received product A-B [1] | consumption index [1] | LD50 [2] [mg/kg] | coccidiostatic activity greater than the racemic product A-B ([1]; ratio to racemic mixture) [times] | acute toxicity greater than product A-B ([2]; ratio to racemic mixture)
1 | O=C(CC1NCCCC1O)Cn1cnc2cc(Br)c(Cl)cc2c1=O (racemic) [Product A-B, 7-bromo-6-chloro-3-[3-(3-hydroxy-2-piperidyl)-acetonyl]-4(3H)-quinazolinone, reference compound] | 90.30 | 0% | 2.018 | 6.8 | – | –
2 | O=C(C[C@H]1NCCC[C@@H]1O)Cn1cnc2cc(Br)c(Cl)cc2c1=O (single isomer, unassigned) [Product A, dextrorotary 7-bromo-6-chloro-3-[3-(3-hydroxy-2-piperidyl)-acetonyl]-4(3H)-quinazolinone hydrobromide] | 103.07 | +14.14% | 1.807 | 3.7 | 3 | about 1.8 times
